Laboratory results: patent publication US20210122763A1, “OGA INHIBITOR COMPOUNDS” (Janssen Pharmaceutica NV, priority 2018, published 2021)

Assays:
[1] = target: T1, recombinant human Meningioma Expressed Antigen 5 (MGEA5), also referred to as O-GlcNAcase (OGA) (Homo sapiens, UniProt O60502); assay: OGA biochemical assay (inhibition of FM-GlcNAc hydrolysis, fluorescence); settings: for Emax: read-out: Enzymatic Emax (%); for IC50: read-out: Enzymatic hOGA, pIC50 (converted)
T1 construct: Full length OGA enzyme was purchased at OriGene (cat #TP322411); purchased OriGene TP322411
T1 sequence (O60502 1-916): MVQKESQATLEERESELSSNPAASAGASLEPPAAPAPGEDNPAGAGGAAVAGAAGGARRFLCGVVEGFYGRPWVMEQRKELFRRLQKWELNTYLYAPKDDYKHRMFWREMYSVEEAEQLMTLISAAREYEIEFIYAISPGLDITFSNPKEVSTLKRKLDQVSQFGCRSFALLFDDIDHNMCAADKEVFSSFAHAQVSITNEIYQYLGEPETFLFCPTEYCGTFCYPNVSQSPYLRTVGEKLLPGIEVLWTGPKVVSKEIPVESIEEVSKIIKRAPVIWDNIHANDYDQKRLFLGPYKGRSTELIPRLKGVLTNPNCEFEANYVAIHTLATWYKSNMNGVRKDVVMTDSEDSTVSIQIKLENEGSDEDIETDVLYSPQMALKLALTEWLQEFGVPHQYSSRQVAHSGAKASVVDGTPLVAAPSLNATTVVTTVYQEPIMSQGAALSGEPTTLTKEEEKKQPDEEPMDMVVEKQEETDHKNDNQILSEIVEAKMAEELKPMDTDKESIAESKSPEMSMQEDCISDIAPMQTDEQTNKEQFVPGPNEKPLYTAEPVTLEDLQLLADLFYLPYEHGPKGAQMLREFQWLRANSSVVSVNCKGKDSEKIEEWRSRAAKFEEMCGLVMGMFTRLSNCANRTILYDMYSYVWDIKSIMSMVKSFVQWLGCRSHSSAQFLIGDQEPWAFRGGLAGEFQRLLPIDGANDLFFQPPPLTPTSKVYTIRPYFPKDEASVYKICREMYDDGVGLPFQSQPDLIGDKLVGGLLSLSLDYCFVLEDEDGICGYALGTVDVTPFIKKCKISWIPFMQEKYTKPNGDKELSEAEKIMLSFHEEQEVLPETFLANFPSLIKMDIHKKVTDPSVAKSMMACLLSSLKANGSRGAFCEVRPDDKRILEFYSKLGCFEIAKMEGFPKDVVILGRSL
Outline: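 Full-length OGA at 2 nM was pre-incubated 60 min at room temperature with compound, then FM-GlcNAc at 100 uM final was added in citrate/phosphate buffer pH 7.2 with 0.005% Tween-20. After 6 h at room temperature, carbonate pH 11.0 stopped the reaction. Fluorescence read at 485/538 nm; IC50 and Hill coefficient from curve fit against no-inhibitor and saturating-standard controls.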

OGA = target: T2, OGA (Homo sapiens, UniProt O60502); assay: OGA cellular assay (ICC detection of O-GlcNAcylated proteins in HEK293 cells inducible for P301L mutant human Tau); type: cell-based; settings: 6 hours incubation; for Emax: HEK293, HEK293 cells inducible for P301L mutant human Tau, maximum = Thiamet G 200 uM; for EC50: HEK293 cells inducible for P301L mutant human Tau, read-out: Cellular hOGA, pEC50 (converted)
T2 construct: HEK293 cells inducible for P301L mutant human Tau (isoform 2N4R) were established at Janssen; endogenous in cells; host or cells: HEK293 cells inducible for P301L mutant human Tau (2N4R)
T2 sequence (O60502 1-916): T1 sequence (O60502 1-916)
Outline: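 HEK293 cells with inducible P301L 2N4R Tau, seeded in low-glucose medium, were exposed to compounds for 6 hours (0.2% DMSO), then PFA-fixed and stained with CTD110.6. Imaging intensity at 488 nm measured O-GlcNAcylation, with Hoechst nuclei counts for toxicity. IC50s came from non-linear regression, with Thiamet G at 200 uM as maximum inhibition.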

Emax [1] [%] | IC50 [1] [µM] | Emax (OGA) [%] | EC50 (OGA) [µM] | melting point [°C] | Structure (SMILES)
97 | 0.2 | 51 | 0.794 | 119.6 | Cc1cnc(OC2CCN(C(C)c3ccc4c(n3)OCCO4)CC2)cn1 (stereo not shown) [Compound 141]
104 | 0.0251 | 73 | 0.158 | 119.6 | CCOc1cc(OC2CCN(C(C)c3ccc4c(n3)OCCO4)CC2)cc(C)n1.Cl (stereo not shown) [Compound 142]
95 | 0.0794 | 57 | 0.398 | 133 | CC(c1ccc2c(n1)OCCO2)N1CCC(Oc2ccc(C#N)nc2)CC1 (stereo not shown) [Compound 150]
98 | 0.2 | 30 | > 1 | 168 | Cc1ccc(OC2CCN(C(C)c3ccc4c(n3)OCCO4)CC2)nn1.Cl (stereo not shown) [Compound 151]
102 | 0.02 | 67 | 0.2 | 140.6 | Cc1ccc(OC2CCN(C(C)c3nc4c(cc3F)OCCO4)CC2)nc1C (stereo not shown) [Compound 156]

Further lines, the compound ahead of its results:

Structure (SMILES) | Emax [1] [%] | IC50 [1] [µM] | Emax (OGA) [%] | EC50 (OGA) [µM] | melting point [°C]
Cc1nc(OC2CCN(C(C)c3nc4c(cc3F)OCCO4)CC2)ccc1C#N (stereo not shown) [Compound 112] | 96 | 0.01 | 87 | 0.158 | 153.41
Cc1cc(OC2CCN(C(C)c3nc4c(cc3F)OCCO4)CC2)ncc1C#N (stereo not shown) [Compound 113] | 96 | 0.0158 | 83 | 0.126 | 161.44
CNC(=O)c1ccc(OC2CCN(C(C)c3ccc4c(n3)OCCO4)CC2)cn1 (stereo not shown) [Compound 122] | 100 | 0.0794 | 48 | 0.794 | 94.5
Cc1ccc(NC2CCN(C(C)c3nc4c(cc3F)OCCO4)CC2)cn1 (stereo not shown) [Compound 126] | 99 | 0.0251 | 73 | 0.0631 | 138
Cc1ncc(NC2CCN(C(C)c3nc4c(cc3F)OCCO4)CC2)cn1 (stereo not shown) [Compound 127] | 98 | 0.02 | 81 | 0.135 | 209.9
Cc1cc(NC2CCN(C(C)c3nc4c(cc3F)OCCO4)CC2)cc(C)n1 (stereo not shown) [Compound 133] | 97 | 0.0251 | 87 | 0.0501 | 250
Cc1ncc(COC2CCN(C(C)c3nc4c(cc3F)OCCO4)CC2)cn1 (stereo not shown) [Compound 135] | 97 | 0.0316 | 97 | 0.0794 | 132.9
Cc1ncc(OC2CCN(C(C)c3ccc4c(n3)OCCC4)CC2)cn1.Cl (stereo not shown) [Compound 139] | 95 | 0.2 | 31 | > 1 | 208.1
Cc1cc(CC2CCN(C(C)c3ccc4c(n3)OCCO4)CC2)cc(C)n1 (stereo not shown) [Compound 140] | 98 | 0.398 | 64 | 0.251 | 144.6
